Results reported in ChEMBL document CHEMBL1131223, “Potent antagonists of the SH2 domain of Grb2: optimization of the X+1 position of 3-amino-Z-Tyr(PO3H2)-X+1-Asn-NH2” (J Med Chem, 1998).

Tests used:
[1] = target: T1, Growth factor receptor-bound protein 2 (Homo sapiens, UniProt P62993); test: Inhibition of binding to Grb2 SH2 domain
[2] = target: T1, Growth factor receptor-bound protein 2; test: Inhibition of binding to Growth factor receptor bound protein 2 (Grb2) SH2 domain
[3] = Inhibition of binding to N-terminal p85 SH2 domain
[4] = target: T2, Tyrosine-protein phosphatase non-receptor type 11 (Homo sapiens, UniProt Q06124); test: Inhibition of interaction between the activated tyrosine kinase receptors and Shp2 SH2 domains in the Ras signal transduction pathway.
T2 sequence (Q06124 whole entry): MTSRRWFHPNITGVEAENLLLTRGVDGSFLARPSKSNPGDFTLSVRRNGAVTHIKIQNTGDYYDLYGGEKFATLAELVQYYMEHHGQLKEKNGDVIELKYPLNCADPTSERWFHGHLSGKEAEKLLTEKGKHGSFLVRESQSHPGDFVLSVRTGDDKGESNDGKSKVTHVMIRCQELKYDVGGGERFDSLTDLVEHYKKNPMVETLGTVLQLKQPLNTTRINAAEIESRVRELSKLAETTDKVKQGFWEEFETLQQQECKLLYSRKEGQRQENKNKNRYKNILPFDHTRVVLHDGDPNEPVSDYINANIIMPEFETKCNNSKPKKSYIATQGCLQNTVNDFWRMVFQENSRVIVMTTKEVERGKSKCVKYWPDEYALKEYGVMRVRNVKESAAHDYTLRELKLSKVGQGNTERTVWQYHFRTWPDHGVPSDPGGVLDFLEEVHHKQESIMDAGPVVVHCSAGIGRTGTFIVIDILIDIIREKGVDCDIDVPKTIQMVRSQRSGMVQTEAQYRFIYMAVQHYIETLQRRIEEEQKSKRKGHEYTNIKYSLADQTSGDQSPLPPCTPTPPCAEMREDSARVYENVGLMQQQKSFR

[5] = target: Tyrosine-protein kinase Lck (Homo sapiens, UniProt P06239); test: Inhibition of binding to p56 Lck tyrosine kinase SH2 domain
Sequence of Tyrosine-protein kinase Lck (P06239 whole entry, the tested form may be a part): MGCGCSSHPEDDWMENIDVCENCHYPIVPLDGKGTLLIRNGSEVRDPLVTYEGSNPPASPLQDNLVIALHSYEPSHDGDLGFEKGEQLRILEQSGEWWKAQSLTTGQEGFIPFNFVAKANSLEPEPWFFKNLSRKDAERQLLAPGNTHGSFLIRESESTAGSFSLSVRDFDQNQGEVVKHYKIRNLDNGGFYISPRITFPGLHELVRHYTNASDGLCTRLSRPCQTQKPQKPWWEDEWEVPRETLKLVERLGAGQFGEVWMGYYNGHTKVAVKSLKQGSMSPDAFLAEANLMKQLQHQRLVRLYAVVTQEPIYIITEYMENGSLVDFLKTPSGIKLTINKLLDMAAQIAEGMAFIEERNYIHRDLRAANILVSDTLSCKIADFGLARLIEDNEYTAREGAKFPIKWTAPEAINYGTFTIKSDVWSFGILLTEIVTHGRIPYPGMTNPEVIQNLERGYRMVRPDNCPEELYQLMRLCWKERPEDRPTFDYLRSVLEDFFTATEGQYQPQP

IC50 [1] | SMILES | IC50 [2] | IC50 [3] | IC50 [4] | IC50 [5]
23 nM | NC(=O)C[C@H](NC(=O)C1(NC(=O)[C@H](Cc2ccc(OP(=O)(O)O)cc2)NC(=O)OCc2cccc(N)c2)CCCC1)C(N)=O | – | – | – | –
206 nM | CC(C)(NC(=O)[C@@H](N)Cc1ccc(OP(=O)(O)O)c(N)c1)C(=O)N[C@@H](CC(N)=O)C(N)=O | – | – | – | –
124 nM | NC(=O)C[C@H](NC(=O)C1(NC(=O)[C@H](Cc2ccc(OP(=O)(O)O)cc2)NC(=O)OCc2cccc(N)c2)CC1)C(N)=O | – | – | – | –
140 nM | NC(=O)C[C@H](NC(=O)C1(NC(=O)[C@H](Cc2ccc(OP(=O)(O)O)cc2)NC(=O)OCc2cccc(N)c2)Cc2ccccc2C1)C(N)=O | – | – | – | –

SMILES | IC50 [1] | IC50 [2] | IC50 [3] | IC50 [4] | IC50 [5]
NC(=O)C[C@H](NC(=O)C1(NC(=O)[C@@H](N)Cc2ccc(OP(=O)(O)O)c(N)c2)CCCCC1)C(N)=O | 1 nM | 4 nM | 970 nM | > 5000 nM | 6.24 nM
